# Results published in a melting point compilation (Tetko et al.; mined from patent text by program, amines drawn as free bases though some values may be those of a salt).
row,SMILES,melting point
1,Cc1c(C(=O)O)c(=O)c(-c2ccccc2)cn1C,227 to 228 °C
2,N#Cc1ccc(Nc2nc(Cl)ccc2[N+](=O)[O-])cc1,175 to 178 °C
3,COc1ccccc1/C=C/C(=O)/C=C/c1ccccc1OC,124 to 126 °C
4,O=c1ccc2cnc(Nc3ccccc3)nc2n1-c1ccccc1,300 to 302 °C
5,CC(=O)Nc1nc(CCc2ccc(CON)cc2)cs1,130 °C
6,COc1ccc(-c2[nH]cnc2-c2cc(OC)c(O)c(OC)c2)cc1O,172 to 173 °C
7,CC1CC(=O)C2OCC1O2 (stereo unspecified),122 to 125 °C
8,COC(=O)c1cc(C(=O)NCCNC(C)=O)c2cc(Cc3ccc(F)cc3)cnc2c1O,251 to 253 °C
9,Cc1cc([N+](=O)[O-])cnc1NCCCN,93 to 95 °C
10,COC(=O)[C@H](c1ccccc1Cl)N1CCc2sc(OC(=O)c3ccccc3)cc2C1,84 to 86 °C
11,CNc1ccc(CO)cc1[N+](=O)[O-],126 to 127 °C
12,Cc1ccc2nc(CCl)nc(Cl)c2c1,111 to 112 °C
13,O=[N+]([O-])c1cccc(-c2nc(Nc3cccc(Cl)c3)c3cc[nH]c3n2)c1,> 250 °C
14,COc1ccc(CNc2cc(OC)c(OC)c(OC)c2)cc1,77 to 78 °C
15,CCCCCCCCCCCCC(=O)c1noc(CCCCCCCCCCCC)c1[N+](=O)[O-],60 to 62 °C
16,c1ccc(CN2CCOC(CN3c4ccccc4CCc4ccccc43)C2)cc1 (stereo unspecified),139 to 140 °C
17,CC(C)S(=O)(=O)NC(=O)Nc1ccc(Cl)c(C(F)(F)F)c1,135 to 140 °C
18,NC(=O)N(O)CCOCc1ccco1,72 to 75 °C
19,COc1ccc2c(=O)sc(C(=O)O)cc2c1,278 to 279 °C
20,N#Cc1cnc2cc(-c3ccc(CN4CCOCC4)cn3)ccc2c1Nc1ccc(Oc2ccccc2)cc1,219 to 221 °C
21,O=C(O)C=CC12CC(c3ccccc31)c1ccccc12,220 to 222 °C
22,Cc1noc(NS(=O)(=O)c2ccc(C(C)(C)C)cc2)c1C,151 to 154 °C
23,Cc1cc(=O)c(OCc2ccccc2)c(C(=O)NC2CCCCC2)o1,118 to 120 °C
24,CCCOc1ccc(OC)c(-c2csc(NC(=O)c3ccc(OCC(OCC)OCC)cc3)n2)c1,107 °C
25,CN(CCCCNC(=O)NCCCOc1cccc(CN2CCCCC2)c1)CCN(Cc1ccc(F)cc1)c1ccccn1,69 °C
26,C[C@@H]1CCCN1CCCOc1ccc(-c2cc(-c3ccccn3)c(=O)[nH]n2)cc1,157 to 161 °C

row,SMILES,melting point
1,O=CC1=Cc2cc(OCCCc3ccccc3)ccc2OC1,71 to 73 °C
2,CC(C)N(CCn1c(CO)nc2c(N)nc3ccccc3c21)C(N)=O,> 240 °C
3,COc1nnc(-c2cc3c([nH]c2=O)CCN(Cc2ccccc2)C3)o1,176 to 178 °C
4,Cn1nnnc1NCCSCc1csc(NC(=N)N)n1,80 to 83 °C
5,CCCNc1nc(N)cc(Cl)n1,92 to 94 °C
6,Cc1cc(-c2cc(O)c(Cl)cc2F)c(=O)n(C)c1C(F)(F)F,207 to 208 °C
7,CC1(C)CC(=O)c2c(-c3ccccc3)sc(C#N)c2C1,100 to 103 °C
8,CCOC(=O)c1c(C2CC2)nn(CC)c1Cc1ccc(-c2ccccc2-c2nnn(C(c3ccccc3)(c3ccccc3)c3ccccc3)n2)cc1,164 to 168 °C
9,O=C(COC1CCCCCCCCCCC1)C1=C(O)CSC1=O,93 to 95 °C
10,CCCCCCOc1ccc(NC(=O)Nc2ccccc2CCc2cc(C(C)(C)C)c(O)c(C(C)(C)C)c2)cc1,174 to 176 °C
11,Cc1cc(Oc2ncc(C(F)(F)F)cc2Cl)nn1C(=O)Nc1cccc([N+](=O)[O-])c1,172 to 174 °C
12,CCOC(=O)c1cn(CC)c2sc(Br)cc2c1=O,153 to 156 °C
13,COc1cc(NCCCCCCN2CCCN(C)CC2)c2nccc(C)c2c1,137 to 139 °C
14,CC(C)c1ccccc1N/C(S)=C(\C#N)C(=O)Nc1ccc(-c2ncn(-c3ccc(OC(F)(F)F)cc3)n2)cc1,159 to 162 °C
15,CC(=O)N1CCC(C2=C(C#N)C(c3cccc(C#N)c3Br)c3c[nH]nc3N2)CC1 (stereo unspecified),> 280 °C
16,COC(=O)c1ccnc(Nc2ccc(SC)cc2)c1,142 °C
17,CC(=O)OC(c1cccnc1)c1c(O)c(=O)ccn1C (stereo unspecified),153 to 154 °C
18,O=C(Oc1ccc(Cl)cc1)c1ncn2c1[C@@H]1CCCN1C(=O)c1c(Cl)cccc1-2,241 to 242 °C
19,CCOC(=O)C1=C(N)NC(N)=C(C(=O)OCC)C1c1ccc(SC)cc1,127 °C
20,O=[N+]([O-])c1ccc(OCCN2CCN(c3cc(Cl)nnc3Cl)CC2)cc1,128 to 129 °C
21,O=c1[nH]nc(Cc2ccncn2)c2ccccc12,204 to 206 °C
22,Cn1ncnc1COc1nc2c(cc1-c1ccco1)nnn2-c1ccccc1F,170 to 173 °C
23,CC(c1ccc2c(c1)N(C)c1cc(Cl)ccc1S2)N(O)C(N)=O (stereo unspecified),176 to 177 °C
24,O=c1c2cccnc2c(-c2cccc(Cl)c2)cn1Cc1cccs1,142 to 145 °C
25,O=c1[nH]ccc2c1c(O)nc1cc(Cl)c(Cl)cc12,> 350 °C
26,Cc1oc(-c2ccccc2)nc1COc1ccc2cc(CCCC3OC(=O)NC3=O)oc2c1 (stereo unspecified),159 to 160 °C

row,SMILES,melting point
1,O=C1CCSC(c2ccccc2Cl)c2cc([N+](=O)[O-])ccc2N1 (stereo unspecified),285 °C
2,CC(=O)Nc1ccccc1N1CCOCC1,140 to 141 °C
3,COc1ccc(C2=NNC(=O)[C@H]3CCCC[C@@H]23)cc1OC (relative stereo),143 to 146 °C
4,CN1CCC2(C)c3cc(O)cc(Br)c3N(C)C12 (stereo unspecified),175 to 177 °C
5,CCOC(=O)CCc1c(OCc2ccc(OCc3nc(-c4ccccc4)oc3C)cc2)ccc2ccccc12,86 to 87 °C
6,O=C1C(=O)c2ccc(-c3ccccc3C(F)(F)F)cc2C2=C1SCC1(CCNCC1)O2,125 to 127 °C
7,C1=C(c2ccccc2)CCN(Cc2c[nH]c3ncccc23)C1,177 to 179 °C
8,Cn1c(C(F)(F)F)cc(=O)n(-c2ccc3snc(C(C)(C)C(=O)O)c3c2)c1=O,155 to 156 °C
9,CC(C)(C)c1cc(Cc2ccc(Cl)nn2)c(O)c(C(C)(C)C)c1,143 to 144 °C
10,O=C(Nc1ccc(OC(F)(F)C(F)F)cc1)N1CC(c2ccccc2)C(c2ccc(OC(F)F)cc2)=N1 (stereo unspecified),132 to 135 °C
11,CCOC(=O)N1CCC(c2noc(-c3cc(Cl)c(N)c4c3OCC4)n2)CC1,162 °C
12,CCOC(=O)/C=C/c1ccc(OCC(C)(C)O)cc1Oc1ncc(C(F)(F)F)cc1Cl,79 to 83 °C
13,COc1ccc(C(=O)N2CCC[C@H]2C(OC)OC)cc1,51 to 52.5 °C
14,O=C(NCc1cccc(O)c1)c1[nH]c2ccc(Cl)cc2c1S(=O)(=O)c1cccc(Cl)c1,230 to 231 °C
15,CCCc1nc(C#N)c(C#N)n1C(c1ccccc1)(c1ccccc1)c1ccccc1,107 °C
16,Cc1c(C(=O)OC(C)C)sc(C(=O)OC(C)C)c1O,87 to 89 °C
17,CCNC(=O)NCC1=C(n2ccccc2=O)c2cc([N+](=O)[O-])ccc2OC1(C)C,197 °C
18,CCOc1ccc(C2=NC[C@@H](O)[C@H](c3ccccc3)O2)cc1 (racemic),124 °C
19,CC(Oc1c(Br)cc(Br)cc1Br)c1cc(Br)c(Br)cc1Br (stereo unspecified),110 to 112 °C
20,Clc1ccc(-c2csc(NCc3cnc(NCc4ccccc4)s3)n2)cc1,105 to 106 °C
21,Cc1cc(C2(C(F)(F)C(F)(F)C(F)(F)F)CC(c3ccc(Cl)cc3)=NO2)ccc1NC(=O)c1cccc(I)c1C(=O)NC(C)C (stereo unspecified),156 to 158 °C
22,CCCCC(CC)COC(=O)C(C#N)=C1C=C(C)N(CCCC)C(C)=C1 (stereo unspecified),69 to 70 °C
23,CCCOc1ccccc1-c1nc(N)cc(=O)[nH]1,184 °C
24,Cc1ccc2c(c1)C=Cc1cc(C)ccc1C2c1cn(-c2ncc(C(=O)O)c(NCC(=O)O)n2)c(=O)[nH]c1=O,271 °C
25,O=C(NN=Cc1ccccc1O)c1cc2ccccc2cc1O,> 285 °C
26,CC(N)=CC(=O)c1ccc(Cl)cc1,126 to 130 °C

row,SMILES,melting point
1,CCCC1=C(C(=O)OCC)C(c2ccccc2OCc2ccccc2)c2c[nH]nc2N1 (stereo unspecified),128 °C
2,O=C1CCS(=O)(=O)C1=NO,148 °C
3,COC(=O)COc1ccc(C(=O)CC2CCN(c3ccncc3)CC2)cc1,137 to 138 °C
4,OCCCc1oc(-n2cncn2)nc1-c1ccc(Cl)cc1,139 to 140 °C
5,CCC(NC(C)=O)c1ccc(Cl)c2nc3n(c12)CCCN3c1ccc(Cl)cc1Cl (stereo unspecified),237 to 239 °C
6,Nc1ccc(Cn2ncnn2)cc1,86 to 87 °C
7,CCOC(=O)CCc1ccc(OCCCc2cn(-c3ccc(C(F)(F)F)cn3)nc2OCC)c(O)c1,92 to 93 °C
8,Oc1ccccc1-c1c(Cl)cccc1Cl,100 to 103 °C
9,CCCCCc1ccc(-c2ncc(C#N)cn2)cc1,96 to 96.2 °C
10,CCCCNC(C)=C1C(=O)OC(=O)C(C(C)=O)=C1O,112 to 114 °C
11,CCOC(=O)COc1ccc(C2=NNC(=O)CC2)cc1,127 to 129 °C
12,CCCCc1nc2cccc(C(=O)OC)c2n1Cc1ccc(-c2ccccc2CO)cc1,126 to 127 °C
13,CC(c1ccc(Br)cc1)N(O)C(N)=O (stereo unspecified),138 to 140 °C
14,O=C(O)CCN1CCCCC1=O,105 to 110 °C
15,COc1ccc(N2CCN(c3c(C)c(C)c4c(c3C)C(O)(c3ccco3)C(C)(C)O4)CC2)cc1 (stereo unspecified),111 to 112 °C
16,CC1CCC2C(=O)N(NC(=O)CCc3cc(C(C)(C)C)c(O)c(C(C)(C)C)c3)C(=O)C2C1 (stereo unspecified),87 to 92 °C
17,COc1cc(Br)ccc1-c1ccc(Br)cc1[N+](=O)[O-],127 to 129 °C
18,Nc1ccc(Sc2ccccn2)cn1,121 °C
19,CCCc1nc(SC(F)F)c(C(=O)O)n1Cc1ccc(-c2ccccc2S(=O)(=O)NC(=O)NCCC2=CCCCC2)cc1,114 °C
20,O=C(c1ccc(O)cc1)c1cc(Cl)cc(Cl)c1,183 °C
21,CS(=O)c1cc2ccccc2[nH]1 (stereo unspecified),140 to 144 °C
22,COc1ccc(C=CCCCCCC(=O)O)cc1,42 to 43 °C
23,CCOC(=O)C1=C(C)NC(C#N)=C(C(=O)OCC)C1c1cc([N+](=O)[O-])ccc1Cl (stereo unspecified),204 to 206 °C
